Reference: patent US6958344B2, “Pyrimidine compounds and their use as modulators of chemokine receptor activity” (AstraZeneca AB, priority 2000, dated 2005)

Compound: C[C@H](CO)Nc1nc(SCc2ccccc2F)nc2[nH]c(N)nc12 [Example 4, (2R)-2-[[8-amino-2-[[(2-fluorophenyl)methyl]thio]-9H-purin-6-yl]amino]-1-propanol]
- melting point: 250 to 255 °C (dec.)
